Data as given in PubChem BioAssay (NCI).
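Here, GI50 denotes the concentration required for 50% inhibition of growth. TGI: concentration producing complete growth inhibition.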

What was measured:
Test in all cases: growth of human tumour cells (NCI), 384-well format
[1] = test system: A498 renal
[2] = test system: ACHN renal
[3] = test system: CCRF-CEM leukemia
[4] = test system: HCC-2998 colon
[5] = test system: HCT-15 colon
[6] = test system: HL-60(TB) leukemia
[7] = test system: HOP-92 NSCLC
[8] = test system: HT29 colon
[9] = test system: IGROV1 ovarian
[10] = test system: LOX IMVI melanoma
[11] = test system: M14 melanoma
[12] = test system: MALME-3M melanoma
[13] = test system: MCF7 breast
[14] = test system: MDA-MB-231 breast
[15] = test system: MDA-MB-435 melanoma
[16] = test system: MDA-MB-468 breast
[17] = test system: MOLT-4 leukemia
[18] = test system: NCI-H226 lung
[19] = test system: NCI-H322M lung
[20] = test system: OVCAR-3 ovarian
[21] = test system: OVCAR-4 ovarian
[22] = test system: OVCAR-5 ovarian
[23] = test system: RPMI-8226 leukemia
[24] = test system: RXF 393 renal
[25] = test system: SF-295 CNS
[26] = test system: SK-MEL-2 melanoma
[27] = test system: SK-MEL-28 melanoma
[28] = test system: SK-MEL-5 melanoma
[29] = test system: SK-OV-3 ovarian
[30] = test system: SR leukemia
[31] = test system: SW-620 colon
[32] = test system: TK-10 renal
[33] = test system: UACC-257 melanoma
[34] = test system: UACC-62 melanoma
[35] = test system: UO-31 renal

## O=C(c1cc(-c2cc3c(cc2C(=O)N2Cc4ccccc4C[C@H]2CN2CCOCC2)OCO3)n2c1CCCC2)N(c1ccccc1)c1ccc(O)cc1
[1]
  GI50: 806 nM
  TGI: 3570 nM
[2]
  GI50: 4910 nM
  TGI: > 100000 nM
[3]
  GI50: 255 nM
  TGI: 618 nM
[4]
  GI50: 1270 nM
  TGI: 2830 nM
[5]
  GI50: 1750 nM
  TGI: 3220 nM
[6]
  GI50: 146 nM
  TGI: 280 nM
[7]
  GI50: 502 nM
  TGI: 2420 nM
[8]
  GI50: 419 nM
  TGI: 1460 nM
[9]
  GI50: 2770 nM
  TGI: > 100000 nM
[10]
  GI50: 1420 nM
  TGI: 3250 nM
[11]
  GI50: 475 nM
  TGI: 1700 nM
[12]
  GI50: 473 nM
  TGI: 4710 nM
[13]
  GI50: 412 nM
  TGI: 3000 nM
[14]
  GI50: 1190 nM
  TGI: 3230 nM
[15]
  GI50: 144 nM
  TGI: 351 nM
[16]
  GI50: 214 nM
  TGI: 456 nM
[17]
  GI50: 182 nM
  TGI: 327 nM
[18]
  GI50: 1010 nM
  TGI: 3180 nM
[19]
  GI50: 2430 nM
  TGI: > 100000 nM
[20]
  GI50: 210 nM
  TGI: 497 nM
[21]
  GI50: 1290 nM
  TGI: 4430 nM
[22]
  GI50: 2760 nM
  TGI: 8210 nM
[23]
  GI50: 207 nM
  TGI: 437 nM
[24]
  GI50: 137 nM
  TGI: 484 nM
[25]
  GI50: 2040 nM
  TGI: 4280 nM
[26]
  GI50: 176 nM
  TGI: 704 nM
[27]
  GI50: 735 nM
  TGI: 2600 nM
[28]
  GI50: 305 nM
  TGI: 928 nM
[29]
  GI50: 356 nM
  TGI: 1460 nM
[30]
  GI50: 77.3 nM
  TGI: 206 nM
[31]
  GI50: 444 nM
  TGI: 1540 nM
[32]
  GI50: 2830 nM
  TGI: > 100000 nM
[33]
  GI50: 362 nM
  TGI: 1250 nM
[34]
  GI50: 356 nM
  TGI: 1820 nM
[35]
  GI50: 4170 nM
  TGI: > 100000 nM
